In patent US8946260B2, “17α-hydroxylase/C17,20-lyase inhibitors” (Novartis AG, priority 2010, dated 2015):
Counter-ions that a name gives are not always drawn.

Molecular target: T1, recombinant Human CYP17 enzyme (17-20 lyase) (Homo sapiens, UniProt P05093)
T1 construct: made in house; host or cells: A549 cells, adenoviral expression system; purified cell membrane preparations
T1 sequence (P05093 1-508): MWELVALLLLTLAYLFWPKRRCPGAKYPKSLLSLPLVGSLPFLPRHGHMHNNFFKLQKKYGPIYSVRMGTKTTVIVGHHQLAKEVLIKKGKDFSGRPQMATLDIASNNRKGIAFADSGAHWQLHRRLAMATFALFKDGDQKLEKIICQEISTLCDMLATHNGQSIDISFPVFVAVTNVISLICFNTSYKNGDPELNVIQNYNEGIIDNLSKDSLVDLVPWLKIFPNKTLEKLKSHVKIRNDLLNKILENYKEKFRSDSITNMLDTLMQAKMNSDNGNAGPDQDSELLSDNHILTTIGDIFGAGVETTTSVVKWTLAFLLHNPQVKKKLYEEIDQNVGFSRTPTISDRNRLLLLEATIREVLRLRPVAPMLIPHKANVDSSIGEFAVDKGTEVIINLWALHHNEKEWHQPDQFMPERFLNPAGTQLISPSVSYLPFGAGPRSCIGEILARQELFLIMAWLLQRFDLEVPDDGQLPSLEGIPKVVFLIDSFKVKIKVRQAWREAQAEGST
Assay: Cytochrome P450, 17-20 lyase (CYP17-lyase) assay, 17-α-hydroxy pregnenolone [21-3H] as substrate
Assay type: biochemical
Settings: not given
Excerpt: 1) Cytochrome P450, 17-20 Lyase (CYP17-Lyase) Assay Development Using Recombinant Human CYP17 Enzyme and 17-α-Hydroxy Pregnenolone [21-3H] as the Substrate.
Cytochrome P450, 17-α-Hydroxylase, 17-20 lyase (CYP17) is a multi functional enzyme that plays a key role in the biosynthesis of steroid hormones. It catalyses both conventional hydroxylation and also the carbon-carbon bond cleavage reactions (Peter Lee-Robichaud et al, Biochem. J, (1997) 321, 857-63). In the hydroxylation reaction, it converts progesterone and pregnenolone to the corresponding hydroxylated products 17-α-hydroxy progesterone and 17-α-hydroxy pregnenolone. In the lyase reaction, it catalyzes the conversion of these hydroxylated substrates to Androstenedione and Dehydroepiandrosterone (DHEA) respectively. In the Cyp17 lyase assay described here, the conversion of 17-α-hydroxy pregnenolone to Dehydroepiandrosterone and acetic acid is being monitored.
Assay method was adopted from a published protocol with some modifications to suit our requirements (Dmitry N Grigoryev et al, Analytical Biochemistry, (1999) 267, 319-330). The conversion of 17-α-hydroxy pregnenolone to Dehydroepiandrosterone is accompanied by the release of acetic acid. In the Cyp17 lyase assay, 17-α-hydroxy pregnenolone labeled with tritium (3H) at position 21 is used as the substrate. Chloroform extraction removes the radioactive steroids and acetic acid is taken into aqueous layer. The tritiated acetic acid released in the assay thus extracted is quantified to determine the enzyme activity.
Initial buffer conditions were, 50 mM Phosphate buffer, pH 7.5 was used as the starting buffer for Cyp17 lyase activity based on the data published in US patent publication No. US2004/0198773 A1. […] Human Cyp 17 gene was cloned and expressed in Adenoviral expression system in A549 cell lines. The purified cell membrane preparations were used as the source for Human CYP17 enzyme. Total protein concentration: 8 mg/mL.
For routine screening, the assay was set up with 16 μg of enzyme in 50 μL reaction volume. 17α-hydroxy pregnenolone [21-3H] was added to a final concentration of 0.25 μM. NADPH is used at a final concentration of 4.2 mM. Total reaction volume was made up to 50 μL with 50 mM Phosphate buffer pH 7.5. The reaction mixture was incubated at room temperature for 90 minutes with gentle shaking. The reaction was stopped by the addition of 100 μL of buffer. 500 μL of 5% freshly prepared activated charcoal was added to the solution and mixed well by vortexing. The samples were centrifuged at 17568×g for 5 minutes. (14000 rpm). The supernatant was carefully transferred to fresh tube and 1.3 mL of scintillation fluid was added, mixed by vortexing.
The radioactivity was measured in a 1450 MicroBeta TriLux™ scintillation counter from Wallac-Perkin Elmer®, USA. The measurements were carried out in 2.0 mL Eppendorf™ tubes. Each tube was counted for 1 minute. The amount of tritiated acetic acid released is proportional to the lyase activity. Percent lyase activity in presence of inhibitor was calculated using the formula given below.
[formula] • Sample: Enzyme reaction in presence of inhibitor. • Positive control: Enzyme reaction without inhibitor but containing DMSO at 1% final concentration. • Blank—Contains all reagents except enzyme. • % Inhibition=100%−% Lyase activity
For IC50 determination, the % inhibition was plotted as a function of inhibitor concentration. The data was fitted to sigmoidal equation using Graphpad Prism® software IV to generate IC50 values.

Row | SMILES | IC50 [nM]
1 | CCn1c2c(c3cc(F)ccc31)C(=O)N(c1cnccc1C)CC2 [Example 59A, 5-ethyl-8-fluoro-2-(4-methylpyridin-3-yl)-2,3,4,5-tetrahydro-1H-pyrido[4,3-b]indol-1-one] | 29

Same assay, conditions: at 10 μM; read-out: hCYP17 Lyase % Inh

Row | SMILES | inhibition at 10 µM [%]
2 | Cc1ccncc1N1CCc2ccc(F)c(NCC3CC3)c2C1=O [Example 39A, 8-(cyclopropylmethylamino)-7-fluoro-2-(4-methylpyridin-3-yl)-3,4-dihydroisoquinolin-1(2H)-one, acetate salt] | 76
3 | Cc1ccncc1N1CCc2ccc(NC(=O)C3CC3)cc2C1=O [Example 25A, Cyclopropanecarboxylic acid [2-(4-methyl-pyridin-3-yl)-1-oxo-1,2,3,4-tetrahydro-isoquinolin-7-yl]-amide] | 35
4 | Cc1ccncc1-n1ccc2ccc(C(F)(F)F)cc2c1=O [Example 29A, 2-(4-Methyl-pyridin-3-yl)-7-trifluoromethyl-2H-isoquinolin-1-one] | 66
5 | COc1ccc(F)c2c1C(=O)N(c1cnccc1C)CC2 [Example 44A, 5-fluoro-8-methoxy-2-(4-methylpyridin-3-yl) 3,4-dihydroisoquinolin-1(2H)-one] | 8

Same assay, conditions: human CYP17 lyase; substrate 0.25 μM; room temperature, 90 minutes

Row | SMILES | Lyase IC 50 nM Human
6 | O=c1c2c(ccn1-c1cnccc1C(F)(F)F)[nH]c1ccccc12 [Example 63A, 2-(4-(trifluoromethyl)pyridin-3-yl)-2,5-dihydro-1H-pyrido[4,3-b]indol-1-one] | NOT ACTIVE

Same assay, conditions: human CYP17 lyase; substrate 0.25 μM; room temperature, 90 minutes; read-out: Lyase IC 50 nM Human

Row | SMILES | IC50 [nM]
7 | Cc1ccncc1N1CCc2ccc(C(F)(F)F)c(F)c2C1=O [Example 47A, 8-Fluoro-2-(4-methyl-pyridin-3-yl)-7-trifluoromethyl-3,4-dihydro-2H-isoquinolin-1-one] | 12
8 | Cc1ccncc1N1CCc2ccc(OC(F)(F)F)cc2C1=O [Example 51A, 2-(4-Methylpyridin-3-yl)-7-(trifluoromethoxy)-3,4-dihydroisoquinolin-1(2H)-one] | 22
9 | Cc1ccncc1N1CCc2ccc(O)cc2C1=O [Example 27A, 7-Hydroxy-2-(4-methyl-pyridin-3-yl)-3,4-dihydro-2H-isoquinolin-1-one] | 83
10 | Cc1ccncc1N1CCc2ccc3ncsc3c2C1=O [Example 66A, 8-(4-methylpyridin-3-yl)-7,8-dihydrothiazolo[4,5-h]isoquinolin-9(6H)-one] | 11
11 | CCn1c2c(c3ccccc31)CC(C)N(c1cnccc1C)C2=O (centres unmarked) [Example 46A, 9-Ethyl-3-methyl-2-(4-methyl-pyridin-3-yl)-2,3,4,9-tetrahydro-b-carbolin-1-one] | 44
12 | Cc1ccncc1N1CCc2cc(F)c(Cl)cc2C1=O [Example 84A, 7-chloro-6-fluoro-2-(4-methylpyridin-3-yl)-3,4-dihydroisoquinolin-1(2H)-one] | 5.3
13 | O=C1c2cc(Cl)c(F)cc2CCN1c1cnccc1C1CC1 [Example 82A, 7-chloro-2-(4-cyclopropylpyridin-3-yl)-6-fluoro-3,4-dihydroisoquinolin-1(2H)-one] | 3
14 | O=C1c2cc(C(F)(F)F)ccc2CCN1c1cnccc1CNC1CC1 [Example 53A, 2-(4-((cyclopropylamino)methyl)pyridin-3-yl)-7-(trifluoromethyl)-3,4-dihydroisoquinolin-1(2H)-one] | 50
15 | Cc1ccncc1N1C(=O)c2cc(C(F)(F)F)ccc2CC1C (centres unmarked) [Example 48A, 3-Methyl-2-(4-methyl-pyridin-3-yl)-7-trifluoromethyl-3,4-dihydro-2H-isoquinolin-1-one] | 16
16 | Cc1ccncc1N1CCc2cc3cn[nH]c3cc2C1=O [Example 69A, 7-(4-methylpyridin-3-yl)-6,7-dihydro-1H-pyrazolo[4,3-g]isoquinolin-8(5H)-one] | 93
17 | O=C1c2cc(Cl)ccc2CCN1c1cccnc1 [Example 1A, 7-Chloro-2-pyridin-3-yl-3,4-dihydro-2H-isoquinolin-1-one] | 60
18 | N#Cc1cc2c(cc1Cl)C(=O)N(c1cnccc1C1CC1)CC2 [Example 91A, 7-chloro-2-(4-cyclopropylpyridin-3-yl)-1-oxo-1,2,3,4-tetrahydroisoquinoline-6-carbonitrile] | 11
19 | Cc1ccncc1N1CCc2ccccc2C1=O [Example 23A, 2-(4-Methyl-pyridin-3-yl)-3,4-dihydro-2H-isoquinolin-1-one] | 227
20 | COc1cc2c(cc1Cl)C(=O)N(c1cnccc1C1CC1)CC2 [Example 89A, 7-chloro-2-(4-cyclopropylpyridin-3-yl)-6-methoxy-3,4-dihydroisoquinolin-1(2H)-one] | 10
21 | O=C1c2cc(C(F)(F)F)c(Cl)cc2CCN1c1cnccc1C(F)(F)F [Example 85A, 6-chloro-7-(trifluoromethyl)-2-(4-(trifluoromethyl)pyridin-3-yl)-3,4-dihydroisoquinolin-1(2H)-one] | 108
22 | CCn1ccc2c1C(=O)N(c1cnccc1C)CC2 [Example 28A, 1-Ethyl-6-(4-methyl-pyridin-3-yl)-1,4,5,6-tetrahydro-pyrrolo[2,3-c]pyridin-7-one] | 70
23 | O=C1c2cc(C(F)(F)F)ccc2CCN1c1cnccc1C1CC1 [Example 73A, 2-(4-cyclopropylpyridin-3-yl)-7-(trifluoromethyl)-3,4-dihydroisoquinolin-1(2H)-one] | 14
24 | Cn1cncc1N1CCc2ccc(C(F)(F)F)cc2C1=O [Example 54A, 2-(1-methyl-1H-imidazol-5-yl)-7-(trifluoromethyl)-3,4-dihydroisoquinolin-1(2H)-one] | 19
25 | O=C1c2c(sc3ccccc23)CCN1c1cnccc1C1CC1 [Example 76A, 2-(4-cyclopropylpyridin-3-yl)-3,4-dihydrobenzo[4,5]thieno[3,2-c]pyridin-1(2H)-one] | 4.2
26 | O=c1c2cc(C(F)(F)F)ccc2ccn1-c1cccnc1 [Example 36A, 2-(pyridin-3-yl)-7-(trifluoromethyl)isoquinolin-1(2H)-one] | 54
27 | Cc1ccncc1N1CCc2cc(O)ccc2C1=O [Example 11B, 6-Hydroxy-2-(4-methyl-pyridin-3-yl)-3,4-dihydro-2H-isoquinolin-1-one] | 139
28 | COc1cc2c(cc1Cl)C(=O)N(c1cnccc1C)CC2 [Example 86A, 7-chloro-6-methoxy-2-(4-methylpyridin-3-yl)-3,4-dihydroisoquinolin-1(2H)-one] | 11
29 | Cc1ccncc1N1CCc2ccc(F)c(Cl)c2C1=O [Example 34A, 8-chloro-7-fluoro-2-(4-methylpyridin-3-yl)-3,4-dihydroisoquinolin-1(2H)-one] | 149
30 | O=c1c2cc(C(F)(F)F)ccc2ccn1-c1cncc(F)c1 [Example 68A, 2-(5-fluoropyridin-3-yl)-7-(trifluoromethyl)isoquinolin-1(2H)-one] | 282
31 | Cc1ccncc1N1CCc2cnccc2C1=O [Example 67A, 2-(4-methylpyridin-3-yl)-3,4-dihydro-2,6-naphthyridin-1(2H)-one] | 716
32 | Cc1ccncc1N1CCc2sc3ccccc3c2C1=O [Example 9A, 2-(4-Methyl-pyridin-3-yl)-3,4-dihydro-2H-benzo[4,5]thieno[3,2-c]pyridin-1-one] | 1.5
